Experimental data published in US4582821A, “Inhibition of cyclic nucleotide independent protein kinases” (E. I. Du Pont de Nemours and Company, priority 1983, dated 1986).
Square brackets hold non-standard residues; d marks the D form. Peptide text beside a SMILES is read from it. * marks the point of attachment. ξ: configuration not given here. Cbz = O=C(OCc1ccccc1)*; ξL = CC(C)CC(N)C(=O)O; CH2Cl = ClC*

Columns and labels:
p130^fps = molecular target: T1, p130^fps (UniProt P00530+P03323); experiment: Casein phosphorylation by p130fps immunoprecipitates; assay type: biochemical, Fujinami sarcoma virus (FSV); conditions: casein-phosphorylating activity of p130fps; concentration not given
T1 construct: anti-gag serum and Staphylococcus protein A suspension (for FSV-transformed cells); viral gag-derived N-terminal portion (natural gag-fps fusion); expressed in transfected cells; immune complex with anti-gag serum and Staphylococcus protein A
Description: In a related experiment, the capacity of Boc-LeuCH2 Br to inhibit phosphorylation of casein by p130^fps was determined. These tests were conducted substantially as described above, except 1 mg/mL casein was added to assay mixtures as a substrate, and reactions were terminated by addition of 2.5 mM unlabeled ATP and immediate cooling to 0°. Phosphorylated casein was separated from immunoprecipitate suspensions by centrifugation at 3,000 xg for 3 minutes. The resulting pellets were resuspended in 70 μL of 10 mM Hepes, pH 7.5, and 20 μL aliquots were pipetted onto filter paper squares as previously described. […]

A-431 cell EGF receptor = molecular target: T2, A-431 cell EGF receptor (Homo sapiens, UniProt P00533); experiment: Protein phosphorylation of A-431 cell membrane EGF receptors (intact membranes, EGF present); assay type: biochemical; conditions: 600 nmoles/mg protein, intact A-431 membranes
T2 construct: intact A-431 cell membranes were employed, rather than solubilized extracts; endogenous in cells; host or cells: A-431 human epidermoid carcinoma cells (plasma membranes)
T2 sequence (P00533 25-1210): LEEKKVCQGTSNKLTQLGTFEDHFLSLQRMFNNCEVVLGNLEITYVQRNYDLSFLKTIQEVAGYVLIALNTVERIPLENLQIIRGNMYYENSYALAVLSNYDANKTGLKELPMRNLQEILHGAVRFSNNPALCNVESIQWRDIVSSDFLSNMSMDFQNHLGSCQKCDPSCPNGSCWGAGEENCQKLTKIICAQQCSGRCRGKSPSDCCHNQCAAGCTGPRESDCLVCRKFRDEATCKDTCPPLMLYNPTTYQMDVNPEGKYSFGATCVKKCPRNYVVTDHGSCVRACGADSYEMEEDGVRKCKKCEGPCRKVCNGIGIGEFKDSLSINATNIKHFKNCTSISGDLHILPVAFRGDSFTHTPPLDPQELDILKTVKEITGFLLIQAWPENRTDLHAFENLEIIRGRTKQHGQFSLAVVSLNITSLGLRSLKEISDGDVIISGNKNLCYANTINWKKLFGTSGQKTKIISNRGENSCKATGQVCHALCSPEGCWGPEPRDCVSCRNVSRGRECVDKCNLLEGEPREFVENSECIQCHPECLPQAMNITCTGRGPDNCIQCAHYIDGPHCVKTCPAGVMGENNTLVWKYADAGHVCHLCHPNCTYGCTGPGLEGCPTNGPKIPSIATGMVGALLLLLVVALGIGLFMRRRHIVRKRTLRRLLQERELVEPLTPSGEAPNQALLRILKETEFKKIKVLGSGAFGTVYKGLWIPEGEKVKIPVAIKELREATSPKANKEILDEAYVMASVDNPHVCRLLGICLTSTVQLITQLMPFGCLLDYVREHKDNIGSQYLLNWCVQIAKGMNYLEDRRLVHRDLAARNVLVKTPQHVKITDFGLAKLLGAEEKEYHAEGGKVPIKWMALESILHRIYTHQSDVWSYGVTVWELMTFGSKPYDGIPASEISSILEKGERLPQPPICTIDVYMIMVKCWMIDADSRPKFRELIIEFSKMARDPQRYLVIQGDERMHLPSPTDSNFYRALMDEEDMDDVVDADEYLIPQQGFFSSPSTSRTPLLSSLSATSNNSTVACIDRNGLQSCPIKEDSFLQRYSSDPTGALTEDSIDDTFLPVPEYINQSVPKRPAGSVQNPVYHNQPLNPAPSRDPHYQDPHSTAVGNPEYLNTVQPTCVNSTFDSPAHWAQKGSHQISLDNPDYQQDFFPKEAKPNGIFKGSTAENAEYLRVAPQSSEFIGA
Description: (§1) Protein phosphorylation assays were conducted substantially as described by Carpenter et al., J. Biol. Chem. 254:4884 (1979). Each assay mixture contained, in a final volume of 70 μL: 20 mM Hepes, pH 7.4, 0.01% bovine serum albumin (BSA), 15-150 μg protein in Triton extract, 100 ng EGF, 1 mM MnCl2 and 10-20 μM [γ-^32 P] ATP (2-4 μCi). Peptide halomethyl ketones were added as solutions in ethanol; an equivalent volume of ethanol was added to controls. Assay mixtures were incubated at about 23° for ten minutes, with or without added EGF. Mixtures were then held at 0° for ten minutes before initiation of phosphorylation by addition of 15 μM γ-^32 P) ATP (2 μCi). Reactions were terminated after 3 minutes at 0° by applying an aliquot of the assay mixture to a Whatman 3MM filter paper (2×2 cm), which was then suspended in ice-cold 10% trichloroacetic acid containing 10 mM pyrophosphate. This suspension was gently shaken for a period of 1 hour, during which the trichloroacetic acid/pyrophosphate mixture was changed three times. Finally, the filter papers were dried and radioactivity measured by scintillation counting.
Assays were conducted substantially as described above, except intact A-431 cell membranes were employed, rather than solubilized extracts, and assay mixtures contained 1 mM ouabain. In these Examples, reactions were permitted to proceed for 6 minutes. This technique is substantially similar to that disclosed by Navarro et al., Biochemistry, 21:6138 (1982).

[1] = system: lymphoma cell line MOLT-4; experiment: Tumor cell line growth inhibition, MOLT-4; assay type: cell-based
Description: (§2) In this series of experiments, the tumor cell growth inhibitory capacity of various peptide halomethyl ketones was tested against lymphoma cell lines YAC-1 and MOLT-4, and against an erythroleukemia cell line, K-562. The lymphoma cell line YAC-1 is described by Kiessling, et al., Eur. J. Immunol. 5:112 (1975), and MOLT-4 is described by Minowada, et al., J. Natl. Cancer Inst. 49:891 (1972) and Nilsson, et al., Int. J. Cancer 15:321 (1975). The erythroleukemia cell line K-562 is described by Lozzio, et al., Leuk. Res. 3:363 (1979). In these experiments, cells were grown on standard media as 10 mL suspension cultures. Initial cell density was 10^5 cells/mL. At day 0, test compounds were introduced in ethanol; control cultures received an equal volume of ethanol. Cells were counted at the times indicated.

lymphoma cell line YAC-1 = experiment: Tumor cell line growth inhibition, YAC-1; assay type: cell-based
Description: as §2

[2] = system: A-431 plasma membrane extracts (EGF-mediated protein phosphorylation); experiment: Protein phosphorylation in solubilized A-431 plasma membrane extracts, with or without EGF; assay type: biochemical, human
Description: The capacity of certain peptide halomethyl ketones to inhibit protein phosphorylation is illustrated by Examples 1-8, below, in which solubilized plasma membranes prepared from A-431 human epidermoid carcinoma cells were incubated with [γ-^32 P] ATP in the presence of EGF.
A-431 human epidermoid carcinoma cells were grown in Dulbecco's modified Eagle's medium containing 5% fetal calf serum. Plasma membranes were isolated by a method substantially similar to that described by Thom et al., Biochem J. 168:187 (1977), and kept at -70°. Solubilization of plasma membranes was performed substantially as described by Cohen et al., J. Biol. Chem. 255:4834 (1980). In this procedure, 7.5 mg/mL protein was solubilized with 5% Triton X-100 (octylphenol), 10% glycerol, and 20 mM Hepes buffer (N-2-hydroxyethylpiperazine-N^1 -2-ethanesulfonic acid), pH 7.4. This mixture was incubated for 20 minutes at about 23°, followed by centrifugation at 100,000 xg for 60 minutes.
as §1

[3] = system: erythroleukemia cell line K-562; experiment: Tumor cell line growth inhibition, K-562; assay type: cell-based
Description: as §2

[4] = 400 nmol/mg protein, control 20.2
[5] = 400 nmol/mg protein, control 7.3

## CC(C)C[C@H](NC(=O)[C@@H]1CCCN1C(=O)CNC(=O)[C@H](Cc1ccccc1)NC(=O)OCc1ccccc1)C(=O)CCl [Z--Phe-Gly-Pro-LeuCH2 Cl] (Cbz-FGPL-CH2Cl)
p130^fps
  Percent Inhibition: 7%

## CC(=O)NC(Cc1ccccc1)C(=O)NC(CCC(=O)O)C(=O)NC(C)C(=O)NC(CC(C)C)C(=O)CCl (stereo not drawn) [Ac-Phe-Glu-Ala-LeuCH2 Cl] (Ac-FEAL-CH2Cl; configuration not given here)
p130^fps
  Percent Inhibition: -1%

## CC(C)CC(NC(=O)C(C)NC(=O)C(CCCCN)NC(=O)C(Cc1ccccc1)NC(=O)OCc1ccccc1)C(=O)CCl (stereo not drawn) [Z--Phe-Lys-Ala-LeuCH2 Cl, Z-Phe-Lys-Ala-LeuCH2 Cl] (Cbz-FKAL-CH2Cl; configuration not given here)
p130^fps
  Percent Inhibition: 11%

## CC(C)CC(NC(=O)C(C)NC(=O)C1CCCN1C(=O)C(Cc1ccccc1)NC(=O)OCc1ccccc1)C(=O)CCl (stereo not drawn) [Z--Phe-Pro-Ala-LeuCH2 Cl] (Cbz-FPAL-CH2Cl; configuration not given here)
p130^fps
  Percent Inhibition: 16%

## C[C@H](NC(=O)CNC(=O)[C@H](Cc1ccccc1)NC(=O)OCc1ccccc1)C(=O)N[C@@H](Cc1ccc(O)cc1)C(=O)CCl [Z--Phe-Gly-Ala-TyrCH2 Cl, Z-Phe-Gly-Ala-TyrCH2 Cl] (Cbz-FGAY-CH2Cl)
A-431 cell EGF receptor
  % inhibition: 67%

## CC(C)CC(NC(=O)C(CCCCN)NC(=O)CNC(=O)C(Cc1ccccc1)NC(=O)OCc1ccccc1)C(=O)CCl (stereo not drawn) [Z--Phe-Gly-Lys-LeuCH2 Cl, Z-Phe-Gly-Lys-LeuCH2 Cl] (Cbz-FGKL-CH2Cl; configuration not given here)
p130^fps
  Percent Inhibition: 48%

## CC(C)C[C@H](NC(=O)[C@H](C)NC(=O)CNC(=O)[C@H](Cc1ccccc1)NC(=O)OCc1ccccc1)C(=O)CCl [Z--Phe-Gly-Ala-LeuCH2 Cl, Z-Phe-Gly-Ala-LeuCH2 Cl] (Cbz-FGAL-CH2Cl)
p130^fps
  Percent Inhibition: 27%

## CC(=O)N[C@@H](Cc1ccccc1)C(=O)NCC(=O)N[C@@H](C)C(=O)N[C@@H](CC(C)C)C(=O)CCl [Ac-Phe-Gly-Ala-LeuCH2 Cl] (Ac-FGAL-CH2Cl)
[1]; 0.4 μg/mL, day 1
  % Growth Relative to Control Cultures: 50%
[1]; 0.4 μg/mL, day 4
  % Growth Relative to Control Cultures: 72%
[1]; 0.4 μg/mL, day 7
  % Growth Relative to Control Cultures: 66%
[1]; 2.0 μg/mL, day 4
  % Growth Relative to Control Cultures: 87%
[1]; 10. μg/mL, day 7
  % Growth Relative to Control Cultures: 88%
Lymphoma cell line YAC-1; 0.4 μg/mL, day 1
  % Growth Relative to Control Cultures: 80%
Lymphoma cell line YAC-1; 0.4 μg/mL, day 2
  % Growth Relative to Control Cultures: 91%
Lymphoma cell line YAC-1; 10. μg/mL, day 1
  % Growth Relative to Control Cultures: 78%
Lymphoma cell line YAC-1; 10. μg/mL, day 2
  % Growth Relative to Control Cultures: 59%
Lymphoma cell line YAC-1; 10. μg/mL, day 3
  % Growth Relative to Control Cultures: 43%
Lymphoma cell line YAC-1; 10. μg/mL, day 4
  % Growth Relative to Control Cultures: 24%
[2]; 400 nmol/mg protein
  % inhibition, EGF Added: 59%
  % inhibition, No EGF Added: 29%
[2]; [4]
  EGF Added (pmol 32P incorporated/min/mg protein): 8.3 pmol^32 P incorporated/min/mg
[2]; [5]
  No EGF Added (pmol 32P incorporated/min/mg protein): 5.2 pmol^32 P incorporated/min/mg
[3]; 0.4 μg/mL, day 1
  % Growth Relative to Control Cultures: 81%
[3]; 0.4 μg/mL, day 3
  % Growth Relative to Control Cultures: 85%
[3]; 0.4 μg/mL, day 7
  % Growth Relative to Control Cultures: 84%
[3]; 2.0 μg/mL, day 4
  % Growth Relative to Control Cultures: 79%
[3]; 10. μg/mL, day 2
  % Growth Relative to Control Cultures: 77%
[3]; 10. μg/mL, day 3
  % Growth Relative to Control Cultures: 87%
[3]; 10. μg/mL, day 7
  % Growth Relative to Control Cultures: 47%

## CC(C)C[C@H](NC(=O)[C@H](Cc1ccccc1)NC(=O)CNC(=O)[C@H](Cc1ccccc1)NC(=O)OCc1ccccc1)C(=O)CCl [Z--Phe-Gly-Phe-LeuCH2 Cl, Z-Phe-Gly-Phe-LeuCH2 Cl] (Cbz-FGFL-CH2Cl)
p130^fps
  Percent Inhibition: 34%

## C[C@H](NC(=O)OCc1ccccc1)C(=O)CCl [Z-AlaCH2 Cl]
[2]; 400 nmol/mg protein
  % inhibition, EGF Added: 71%
  % inhibition, No EGF Added: 44%
[2]; [4]
  EGF Added (pmol 32P incorporated/min/mg protein): 5.9 pmol^32 P incorporated/min/mg
[2]; [5]
  No EGF Added (pmol 32P incorporated/min/mg protein): 4.1 pmol^32 P incorporated/min/mg

## CC(C)C[C@H](NC(=O)[C@H](C)NC(=O)[C@H](Cc1ccccc1)NC(=O)[C@H](Cc1ccccc1)NC(=O)OCc1ccccc1)C(=O)CCl [Z--Phe-Phe-Ala-LeuCH2 Cl] (Cbz-FFAL-CH2Cl)
p130^fps
  Percent Inhibition: 11%

## CC(C)CC(NC(=O)[C@H](C)NC(=O)[C@H](CC(C)C)NC(=O)[C@H](Cc1ccccc1)NC(=O)OCc1ccccc1)C(=O)CCl (stereo partly drawn) [Z--Phe-Leu-Ala-LeuCH2 Cl, Z-Phe-Leu-Ala-LeuCH2 Cl] (Cbz-FLA[ξL]-CH2Cl)
p130^fps
  Percent Inhibition: 36%

## CC(C)CC(NC(=O)C(CC(C)C)NC(=O)CNC(=O)C(Cc1ccccc1)NC(=O)OCc1ccccc1)C(=O)CCl (stereo not drawn) [Z--Phe-Gly-Leu-LeuCH2 Cl, Z-Phe-Gly-Leu-LeuCH2 Cl] (Cbz-FGLL-CH2Cl; configuration not given here)
p130^fps
  Percent Inhibition: 44%

## CC(=O)NC(Cc1ccccc1)C(=O)NCC(=O)NC(CCC(=O)O)C(=O)NC(CC(C)C)C(=O)CCl (stereo not drawn) [Ac-Phe-Gly-Glu-LeuCH2 Cl] (Ac-FGEL-CH2Cl; configuration not given here)
p130^fps
  Percent Inhibition: 0%

## CC(C)[C@H](NC(=O)OC(C)(C)C)C(=O)CCl [Boc-ValCH2 Cl]
[2]; 477 nmol/mg protein
  % inhibition, EGF Added: 25%
[2]; 477 nmol/mg protein, control 96.2
  EGF Added (pmol 32P incorporated/min/mg protein): 72.2 pmol^32 P incorporated/min/mg
[2]; 477 nmol/mg protein, control 21.6
  No EGF Added (pmol 32P incorporated/min/mg protein): 20.3 pmol^32 P incorporated/min/mg
